Measurements as given in the NIST ThermoML archive (doi:10.1021/je8003707).
Numbers after ± are expanded uncertainties.

Conditions: 101 kPa, Liquid; for viscosity: Capillary tube (Ostwald / Ubbelohde) method; for mass density: Pycnometric method

Row | viscosity (288.15 K) | mass density (288.15 K) | viscosity (293.15 K) | mass density (293.15 K) | viscosity (298.15 K) | mass density (298.15 K) | viscosity (303.15 K) | mass density (303.15 K) | viscosity (308.15 K) | mass density (308.15 K) | SMILES
1 | 1.077 ± 0.011 mPa·s | 783.3 ± 0.3 kg/m3 | 0.984 ± 0.01 mPa·s | 778.6 ± 0.3 kg/m3 | 0.903 ± 0.01 mPa·s | 773.9 ± 0.3 kg/m3 | 0.83 ± 0.009 mPa·s | 769.2 ± 0.3 kg/m3 | 0.764 ± 0.009 mPa·s | 764.5 ± 0.4 kg/m3 | C1CCCCC1 [cyclohexane]
2 | 0.441 ± 0.007 mPa·s | 688.1 ± 0.3 kg/m3 | 0.417 ± 0.007 mPa·s | 683.8 ± 0.3 kg/m3 | 0.396 ± 0.007 mPa·s | 679.7 ± 0.3 kg/m3 | 0.375 ± 0.007 mPa·s | 675.4 ± 0.3 kg/m3 | 0.356 ± 0.007 mPa·s | 671.1 ± 0.3 kg/m3 | CCCCCCC [heptane]
